Results reported in BindingDB's records for doi:10.7270/Q22R3Q4F (Broad Institute, 2010).
pEC50: −log10 of the molar value.

Target: T1, Alkanal monooxygenase alpha chain (Vibrio harveyi, UniProt P07740)
T1 sequence (P07740 whole entry): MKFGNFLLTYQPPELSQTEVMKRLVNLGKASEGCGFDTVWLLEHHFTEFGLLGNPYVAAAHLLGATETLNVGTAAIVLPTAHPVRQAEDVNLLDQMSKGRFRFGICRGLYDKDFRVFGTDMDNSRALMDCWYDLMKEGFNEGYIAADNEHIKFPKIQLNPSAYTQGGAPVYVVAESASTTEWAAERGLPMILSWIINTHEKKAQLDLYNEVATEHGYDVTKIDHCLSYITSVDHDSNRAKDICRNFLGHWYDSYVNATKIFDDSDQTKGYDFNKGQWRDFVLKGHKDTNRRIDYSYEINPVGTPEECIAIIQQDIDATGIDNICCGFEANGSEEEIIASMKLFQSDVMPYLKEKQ
Assay: Vibrio harveyi growth inhibition, confirmation, absorbance, dose retest (AID 2723)

Compound	pEC50
Cn1cnc(S(=O)(=O)Nc2ccc(OC(F)(F)F)cc2)c1 [SMR000314513]	< 3.80
COc1cc(NC(=O)CN2C(=O)NC(c3ccccc3)(c3ccccc3)C2=O)cc(OC)c1 [MLS001176525]	< 3.80
Cc1cccc(NS(=O)(=O)c2ccc(Oc3ccccc3)cc2)n1 [SMR000071466]	< 3.80
CN(C)S(=O)(=O)c1ccc(NC(=S)NC(=O)Cc2ccccc2)cc1 [N-[[4-(dimethylsulfamoyl)phenyl]carbamothioyl]-2-phenyl-ethanamide]	< 3.80
C=Cn1c(C(=O)O)ccc1-c1ccc(CC)cc1	< 3.80
CCc1ccc(S(=O)(=O)Nc2ccc(Br)cn2)cc1 [MLS001211346]	< 3.80
CCCc1ccc(S(=O)(=O)N(C)S(=O)(=O)c2ccc(F)cc2)cc1 [N-(4-fluorophenyl)sulfonyl-N-methyl-4-propylbenzenesulfonamide]	5.11
